This assay concerns NLRP3 inflammasome. Briefly: IL-1β secretion assay (LPS-primed, nigericin-activated THP-1 cells, MSD readout). Type of assay: cell-based. The note with it: read-out: IL1b IC50. As for the experimental part: Monocytic THP-1 cells (DSMZ) were maintained in RPMI media (RPMI 1640 Medium (1×) +10% FBS, Eurobio CVFSVFOO—OU). Cells were then plated at 16,000 cells per well in 96-well round bottom cell culture plates (TPP, ref 92097) and maintained with RPMI and 0.1% Bovine Serum Albumin solution. Activation of the NLRP3 inflammasome requires both an NF-kB-dependent priming step and the addition of a NLRP3 activator. The priming step was induced by LPS (10 ng/mL, Sigma, ref:L4391) for 3 h at 37° C., then compound, in a 1:3.10 serial dilution series in DMSO 1:100, and the activator nigericin (Sigma Aldrich, ref: SML1779) 10 μM (final concentration) were added to the cells and co-incubated for 2 h. 50 μL supernatant was removed, and IL-1β levels were monitored using an MSD assay (Electro Chemical Luminescence Immunoassay (ECLI) according to manufacturers' instructions.
IC50 values were calculated from the plot of percentage of inhibition versus the inhibitor concentration by a logistics fit according to: y=A2+(A1−A2)/(1+(x/IC50)^p) where y is the %-inhibition at the inhibitor concentration, x. A1 is the lowest inhibition value, i.e., 0%, and A2 the maximum inhibition value, i.e., 100%. The exponent, p, is the Hill coefficient. The curve fitting was conducted with an internally developed software.

[1] abbreviates: Homo sapiens, THP-1, LPS-primed.

SMILES strings stand for the structures. Counter-ions that a name gives are not always drawn. Like-named read-outs stand apart in the source and are kept apart here.

`CC(C)c1nn(CC(=O)NC2CCCN(C3CCC3(C)C)C2)c(=O)c2cc3ccsc3n12` (racemic) [Example 57, 2-(12-isopropyl-9-oxo-3-thia-1,10,11-triazatricyclo[6.4.0.02,6]dodeca-2(6),4,7,11-tetraen-10-yl)-N-[rac-(3R)-1-(2,2-dimethylcyclobutyl)-3-piperidyl]acetamide]: under setting [1], the half-inhibitory concentration (IC50) was determined as 1.01 µM.

Consider `CC(C)c1nn(CC(=O)NC2CCN(C(C)(C)C)C2)c(=O)c2cc3ccsc3n12` (racemic) [Example 87, 2-(12-isopropyl-9-oxo-3-thia-1,10,11-triazatricyclo[6.4.0.02,6]dodeca-2(6),4,7,11-tetraen-10-yl)-N-[rac-(3R)-1-tert-butylpyrrolidin-3-yl]acetamide], for which the IC50 under setting [1] is over 10 µM.

For `CC(O)c1nn(CC(=O)N[C@@H]2CCCN(C3CC3)C2)c(=O)c2cc3ccsc3n12` (single isomer, unassigned) [Example 44], where the note is “LPS-primed”, the IC50 stood at 0.278 µM.

In the case of `CC(O)c1nn(CC(=O)N[C@@H]2CCCN(C3CCC3)C2)c(=O)c2cc3ccsc3n12` (single isomer, unassigned) [Example 50], for the setting “LPS-primed”, the half-maximal inhibitory concentration (IC50) stood at 0.65 µM.

In the case of `CC(O)c1nn(CC(=O)N[C@@H]2CCCN(C3CC3)C2)c(=O)c2cc3ccsc3n12` (single isomer, unassigned) [Example 51], the IC50 (LPS-primed) was over 10 µM.

Regarding `CC(O)c1nn(CC(=O)N[C@@H]2CCCN(C3CCC3)C2)c(=O)c2cc3ccsc3n12` (single isomer, unassigned) [Example 81], where the note is “LPS-primed”, the IC50 was over 10 µM.

As for `CC(C)c1nn(CC(=O)NC2C[C@@H]3C[C@H]2N(C)C3)c(=O)c2cc3ccsc3n12` (stereo in doubt) [Example 82, N-[(1R,4R)-2-methyl-2-azabicyclo[2.2.1]heptan-6-yl]-2-(8-isopropyl-5-oxothieno [3′,2′:4,5]pyrrolo[1,2-d][1,2,4]triazin-6(5H)-yl)acetamide], the IC50 under setting [1] amounted to 4.5 µM.

With `CC(C)c1nn(CC(=O)Nc2cncs2)c(=O)c2cc3cc(Cl)sc3n12` [Example 7, 2-(2-chloro-8-isopropyl-5-oxothieno[3′,2′:4,5]pyrrolo[1,2-d][1,2,4]triazin-6(5H)-yl)-N-(thiazol-5-yl)acetamide], the IC50 under setting [1] was 1.79 µM.

For the molecule `Cc1cc2cc3c(=O)n(CC(=O)N[C@@H]4CCCN(C)C4)nc(C(C)C)n3c2s1` [Example 9, (R)-2-(8-isopropyl-2-methyl-5-oxothieno[3′,2′:4,5]pyrrolo[1,2-d][1,2,4]triazin-6(5H)-yl)-N-(1-methylpiperidin-3-yl)acetamide 2,2,2-trifluoroacetate], the IC50 under setting [1] was determined as 9.56 µM.

Regarding `CC(C)c1nn(CC(=O)Nc2ccc3ncsc3c2)c(=O)c2cc3ccsc3n12` [Example 12, N-(benzo[d]thiazol-6-yl)-2-(8-isopropyl-5-oxothieno[3′,2′:4,5]pyrrolo[1,2-d][1,2,4]triazin-6(5H)-yl)acetamide], the IC50 under setting [1] was 0.54 µM.

As for `CC(C)c1nn(CC(=O)Nc2ccc3scnc3c2)c(=O)c2cc3ccsc3n12` [Example 15, N-(benzo[d]thiazol-5-yl)-2-(8-isopropyl-5-oxothieno[3′,2′:4,5]pyrrolo[1,2-d][1,2,4]triazin-6(5H)-yl)acetamide], the concentration for half-maximal inhibition (IC50) under setting [1] was 2.74 µM.

Take `COc1ccc(NC(=O)Cn2nc(C(C)C)n3c(cc4ccsc43)c2=O)cn1` [Example 16, 2-(8-isopropyl-5-oxothieno[3′,2′:4,5]pyrrolo[1,2-d][1,2,4]triazin-6(5H)-yl)-N-(6-methoxypyridin-3-yl)acetamide]: the IC50 under setting [1] stood at 1.52 µM.

For `CC(C)c1nn(C(C)C(=O)N[C@@H]2CCCN(C3CCC3)C2)c(=O)c2cc3ccsc3n12` (stereo partly drawn) [Example 25, N—((R)-1-cyclobutylpiperidin-3-yl)-2-(8-isopropyl-5-oxothieno[3′,2′:4,5]pyrrolo[1,2-d][1,2,4]triazin-6(5H)-yl)propanamide formate], the concentration for half-maximal inhibition (IC50) under setting [1] is 0.768 µM.

Turning to `CC(C)c1nn(C(C)C(=O)N[C@@H]2CCCN(C3CC3)C2)c(=O)c2cc3ccsc3n12` (stereo partly drawn) [Example 26, N—((R)-1-cyclopropylpiperidin-3-yl)-2-(8-isopropyl-5-oxothieno[3′,2′:4,5]pyrrolo[1,2-d][1,2,4]triazin-6(5H)-yl)propanamide formate], the IC50 under setting [1] amounted to 1.99 µM.

With `CC(C)c1nn(CC(=O)Nc2ccc3cnn(C)c3c2)c(=O)c2cc3ccsc3n12` [Example 27, 2-(8-isopropyl-5-oxothieno[3′,2′:4,5]pyrrolo[1,2-d][1,2,4]triazin-6(5H)-yl)-N-(1-methyl-1H-indazol-6-yl)acetamide formate], the half-maximal inhibitory concentration (IC50) under setting [1] worked out at 1.03 µM.

Turning to `COCc1nn(CC(=O)N[C@@H]2CCCN(C3CCC3)C2)c(=O)c2cc3cc(Cl)sc3n12` [Example 29, (R)-2-(2-chloro-8-(methoxymethyl)-5-oxothieno[3′,2′:4,5]pyrrolo[1,2-d][1,2,4]triazin-6(5H)-yl)-N-(1-cyclobutylpiperidin-3-yl)acetamide formate], under setting [1], the half-maximal inhibitory concentration (IC50) was determined as 1.14 µM.

With `COCc1nn(CC(=O)N[C@@H]2CCCN(C3CC3)C2)c(=O)c2cc3cc(Cl)sc3n12` [Example 30, (R)-2-(2-chloro-8-(methoxymethyl)-5-oxothieno[3′,2′:4,5]pyrrolo[1,2-d][1,2,4]triazin-6(5H)-yl)-N-(1-cyclopropylpiperidin-3-yl)acetamide formate], the IC50 under setting [1] was found to be 1.2 µM.

For `COCc1nn(CC(=O)N[C@@H]2CCCN(C3CCC3)C2)c(=O)c2cc3ccsc3n12` [Example 32, (R)—N-(1-cyclobutylpiperidin-3-yl)-2-(8-(methoxymethyl)-5-oxothieno [3′,2′:4,5]pyrrolo[1,2-d][1,2,4]triazin-6(5H)-yl)acetamide], the IC50 under setting [1] was determined as 3.06 µM.

Regarding `COCc1nn(CC(=O)N[C@@H]2CCCN(C3CC3)C2)c(=O)c2cc3ccsc3n12` [Example 33, (R)—N-(1-cyclopropylpiperidin-3-yl)-2-(8-(methoxymethyl)-5-oxothieno[3′,2′:4,5]pyrrolo[1,2-d][1,2,4]triazin-6(5H)-yl)acetamide 2,2,2-trifluoroacetate], the concentration for half-maximal inhibition (IC50) under setting [1] was 2.75 µM.

Turning to `CC(C)c1nn(CC(=O)NC2CN(C)CC(F)(F)C2)c(=O)c2cc3cc(Cl)sc3n12` (centres unmarked) [Example 34, 2-(2-chloro-8-isopropyl-5-oxothieno[3′,2′:4,5]pyrrolo[1,2-d][1,2,4]triazin-6(5H)-yl)-N-(5,5-difluoro-1-methylpiperidin-3-yl)acetamide 2,2,2-trifluoroacetate], under setting [1], the IC50 came out at 6.16 µM.

Consider `CC(C)c1nn(CC(=O)NC2CCCN(C(C)(C)C)C2)c(=O)c2cc3ccsc3n12` (centres unmarked) [Example 37, N-(1-(tert-butyl)piperidin-3-yl)-2-(8-isopropyl-5-oxothieno[3′,2′:4,5]pyrrolo[1,2-d][1,2,4]triazin-6(5H)-yl)acetamide formate], for which the 50% inhibitory concentration (IC50) under setting [1] is 0.045 µM.

As to `CC(C)c1nn(CC(=O)NC2CCCN(CC(F)(F)F)C2)c(=O)c2cc3ccsc3n12` (centres unmarked) [Example 38, 2-(8-isopropyl-5-oxothieno[3′,2′:4,5]pyrrolo[1,2-d][1,2,4]triazin-6(5H)-yl)-N-(1-(2,2,2-trifluoroethyl)piperidin-3-yl)acetamide 2,2,2-trifluoroacetate], the IC50 under setting [1] is 1.3 µM.

For the molecule `CC(C)c1nn(CC(=O)NC2CN3CCC2CC3)c(=O)c2cc3ccsc3n12` (centres unmarked) [Example 39, 2-(8-isopropyl-5-oxothieno[3′,2′:4,5]pyrrolo[1,2-d][1,2,4]triazin-6(5H)-yl)-N-(quinuclidin-3-yl)acetamide], for the setting “Homo sapiens, LPS-primed”, the IC50 is 2.23 µM.
